Peptide text beside a SMILES is read from it.
Key:
mAb41 Fab = experiment: Affinity measurements by Octet (binding kinetics of mAb41 Fab to biotinylated peptides); design: species or system mice; settings: Octet RED, 1:1 model fit
Description: Binding kinetics of mAb41 Fab to selected peptides were measured using a Fortebio Octet Red 96 instrument (Menlo Park, CA). All assays were performed in 1 × kinetic buffer (Fortebio). Biotinylated peptides were loaded onto streptavidin biosensors (Fortebio) for 100 s and quenched with biocytin. A two-fold dilution series of antibody Fab (prepared using a mouse IgG1 kit, Pierce) was used as analyte. Association was performed for 300 s and dissociation for 900 s. Binding constants were obtained by fitting sensorgrams with a 1:1 model using ForteBio Data Analysis Software.

mAb41 = experiment: Competitive ELISA for binding of mAb41 to immobilized peptide B; design: species or system mice; settings: 1 μg biotinylated pB immobilized, 12 ng mAb41, competitor peptide 0 to 0.8 μg
Description: Streptavidin coated 96-well ELISA plates were coated with 1 μg/well biotinylated peptide B as previously described ([Major et al., 1999]). Equal amounts of mAb (12 ng in 100 μl PBS containing 5% milk) were added to each well with increasing amounts of competitor peptide (from 0 to 0.8 μg). After 1 hr incubation at room temperature and washing, secondary antibody was added. The substrate reaction and absorbance reading were performed as described above.

CSCC[C@H](NC(=O)[C@@H](N)CCSC)C(=O)N[C@@H](CCC(=O)O)C(=O)N[C@@H](CS)C(=O)N[C@@H](CCC(=O)O)C(=O)N[C@@H](CCCCN)C(=O)NCC(=O)N[C@@H](CCCCN)C(=O)N[C@@H](Cc1ccc(O)cc1)C(=O)N[C@H](C(=O)N[C@@H](CCC(N)=O)C(=O)NCC(=O)N[C@@H](Cc1c[nH]c2ccccc12)C(=O)N[C@@H](CC(C)C)C(=O)N[C@@H](CS)C(=O)N[C@@H](Cc1c[nH]cn1)C(=O)N[C@@H](CC(C)C)C(=O)N[C@@H](Cc1ccccc1)C(=O)N[C@@H](Cc1c[nH]c2ccccc12)C(=O)N[C@@H](CCC(=O)O)C(=O)N[C@@H](CC(=O)O)C(=O)N[C@@H](CS)C(=O)N[C@@H](CCC(N)=O)C(=O)N[C@@H](CC(=O)O)C(=O)N[C@@H](CCCNC(=N)N)C(=O)NCC(=O)N[C@@H](Cc1c[nH]c2ccccc12)C(=O)N[C@@H](CC(C)C)C(=O)N[C@@H](CCC(=O)O)C(=O)N[C@@H](CCC(N)=O)C(=O)N[C@@H](CC(C)C)C(=O)N[C@@H](CCCNC(=N)N)C(=O)N[C@@H](CC(N)=O)C(=O)N[C@@H](CO)C(=O)N[C@@H](CS)C(=O)N[C@@H](C)C(=O)O)C(C)C [p41_1] (H-MMECEKGKYVQGWLCHLFWEDCQDRGWLEQLRNSCA-OH; N-terminus and C-terminus assumed)
kon (mAb41 Fab; association 300 s): 14400 M⁻¹ s⁻¹
Kd (mAb41 Fab; biotinylated peptide on streptavidin biosensor, mAb41 Fab 125 nM to 7.8 nM 2-fold series): 16.7 nM
kdis (mAb41 Fab; dissociation 900 s): 0.000241 s⁻¹
competition with wild type pB for binding to mAb41 (mAb41): inhibited binding of mAb41 to immobilized pB

Source: PMC4563141, “Reverse Engineering of Vaccine Antigens Using High Throughput Sequencing-enhanced mRNA Display” (EBioMedicine, 2015)
